Results on two compounds are retold here after patent US7652149B2, “Crystalline pyrazoles” (Pharmacia & Upjohn Company LLC, priority 2004, dated 2010).

A short description of this data set: Suspension crystallization: relative thermodynamic stability of Forms I and II, Tt bracketed. In kind it is physicochemical. The note with it: for temperature at which the form is the equilibrium solid phase (thermodynamically more stable): mixture of Forms I and II suspended in toluene, at least three days, PXRD. The text has this:
In this Example, the transition temperature between Forms I and II is described. Form I and Form II are enantiotropic, which means that one polymorph is stable at temperatures below a transition temperature, Tt, but the other polymorph is stable at temperatures above Tt. The two solid phases have equal free energies at the transition temperature. Knowledge of the thermodynamic stability relationship is necessary for the selection of suitable crystallization conditions to produce Form I, and for formulation development and commercial manufacturing. It is important to determine Tt for the preparation and processing of bulk drug.
Materials. The Form I sample used in this study was 100% pure when tested by HPLC. Form II was prepared by heating Form I to 155° C. for 3 days in a dry oven and cooled to room temperature. This Form II sample was free of chemical degradation when tested by HPLC.
Methods. Suspension crystallization. The relative stability relationship between Forms I and II at a specific temperature was bracketed by suspending a mixture of the two polymorphs in toluene in a closed glass vial that was equilibrated at the temperature of interest. Excess solid of one polymorph was first added to saturate toluene in a glass vial at the chosen temperature. The other polymorph was added at least half an hour later. The suspension was stirred continuously for at least three days. A portion of the suspension was withdrawn and immediately filtered. The filtered solid was analyzed using PXRD to identify the equilibrium solid at that temperature. […] By repeating the experiment at different temperatures, the Tt was bracketed.

As to `NS(=O)(=O)c1ccc(-n2nc(C(F)(F)F)cc2-c2ccc(F)cc2)cc1` [Form II, 4-[5-(4-fluorophenyl)-3-(trifluoromethyl)-1H-pyrazol-1-yl]-benzenesulfonamide], the “temperature at which the form is the equilibrium solid phase (thermodynamically more stable)” value is not below 71.5 °C. Under “ambient temperature and pressure”, the “relative stability of the crystal form” value is reported as “unstable with respect to another form, Form I”.
For the compound `NS(=O)(=O)c1ccc(-n2nc(C(F)(F)F)cc2-c2ccc(F)cc2)cc1` [Form I, 4-[5-(4-fluorophenyl)-3-(trifluoromethyl)-1H-pyrazol-1-yl]-benzenesulfonamide], the “temperature at which the form is the equilibrium solid phase (thermodynamically more stable)” value was not above 71.0 °C.
